Data as given in patent publication US12522602B2, “Derivatives having 2,3-dihydro-1H-indene or 2,3-dihydrobenzofuran moiety or pharmaceutically acceptable salt thereof and pharmaceutical compositions comprising the same” (YUHAN CORPORATION, priority 2019, dated 2026).

These compounds were tested on GM1 production in Jurkat cells (assay: cells). Settings: Homo sapiens, Jurkat, 72 h.
Format: cell-based

Structure (SMILES)	IC50 [nM]
CCOc1ccc(Cl)cc1-c1ccc2c(c1)CC(C)(C)C2NC(=O)O[C@@H]1CN2CCC1CC2 (stereo partly drawn) [Example 212, (S)-quinuclidin-3-yl (5-(5-chloro-2-ethoxyphenyl)-2,2-dimethyl-2,3-dihydro-1H-inden-1-yl)carbamate]	19.1
CCCOc1ccc(F)cc1-c1ccc2c(c1)CC(C)(C)C2NC(=O)O[C@@H]1CN2CCC1CC2 (stereo partly drawn) [Example 213, (S)-quinuclidin-3-yl (5-(5-fluoro-2-propoxyphenyl)-2,2-dimethyl-2,3-dihydro-1H-inden-1-yl)carbamate]	39.8
CCCOc1cccc(F)c1-c1ccc2c(c1)CC(C)(C)C2NC(=O)O[C@@H]1CN2CCC1CC2 (stereo partly drawn) [Example 214, (S)-quinuclidin-3-yl (5-(2-fluoro-6-propoxyphenyl)-2,2-dimethyl-2,3-dihydro-1H-inden-1-yl)carbamate]	64.2
Cc1ccc(-c2ccc3c(c2)CC(C)(C)C3NC(=O)O[C@@H]2CN3CCC2CC3)cc1F (stereo partly drawn) [Example 215, (S)-quinuclidin-3-yl (5-(3-fluoro-4-methylphenyl)-2,2-dimethyl-2,3-dihydro-1H-inden-1-yl)carbamate]	14.9
CCCOc1ccc(-c2ccc3c(c2)CC(C)(C)C3NC(=O)O[C@@H]2CN3CCC2CC3)cc1F (stereo partly drawn) [Example 216, (S)-quinuclidin-3-yl (5-(3-fluoro-4-propoxyphenyl)-2,2-dimethyl-2,3-dihydro-1H-inden-1-yl)carbamate]	28.7
CC(C)Oc1ccc(Cl)cc1-c1ccc2c(c1)CC(C)(C)C2NC(=O)O[C@@H]1CN2CCC1CC2 (stereo partly drawn) [Example 217, (S)-quinuclidin-3-yl (5-(5-chloro-2-isopropoxyphenyl)-2,2-dimethyl-2,3-dihydro-1H-inden-1-yl)carbamate]	72.1
CCCCOc1cccc(-c2ccc3c(c2)CC(C)(C)C3NC(=O)O[C@@H]2CN3CCC2CC3)c1 (stereo partly drawn) [Example 218, (S)-quinuclidin-3-yl (5-(3-butoxyphenyl)-2,2-dimethyl-2,3-dihydro-1H-inden-1-yl)carbamate]	6.7
Cc1cc(F)cc(-c2ccc3c(c2)CC(C)(C)C3NC(=O)O[C@@H]2CN3CCC2CC3)c1 (stereo partly drawn) [Example 219, (S)-quinuclidin-3-yl (5-(3-fluoro-5-methylphenyl)-2,2-dimethyl-2,3-dihydro-1H-inden-1-yl)carbamate]	30.4
Cc1ccc(F)cc1-c1ccc2c(c1)CC(C)(C)C2NC(=O)O[C@@H]1CN2CCC1CC2 (stereo partly drawn) [Example 220, (S)-quinuclidin-3-yl (5-(5-fluoro-2-methylphenyl)-2,2-dimethyl-2,3-dihydro-1H-inden-1-yl)carbamate]	17.6
CC1(C)Cc2cc(-c3cc(C(F)(F)F)ccc3Cl)ccc2C1NC(=O)O[C@@H]1CN2CCC1CC2 (stereo partly drawn) [Example 221, (S)-quinuclidin-3-yl (5-(2-chloro-5-(trifluoromethyl)phenyl)-2,2-dimethyl-2,3-dihydro-1H-inden-1-yl)carbamate]	16.9
COc1cc(F)cc(-c2ccc3c(c2)CC(C)(C)C3NC(=O)O[C@@H]2CN3CCC2CC3)c1 (stereo partly drawn) [Example 222, (S)-quinuclidin-3-yl (5-(3-fluoro-5-methoxyphenyl)-2,2-dimethyl-2,3-dihydro-1H-inden-1-yl)carbamate]	25.6
Cc1ccc(Cl)c(-c2ccc3c(c2)CC(C)(C)C3NC(=O)O[C@@H]2CN3CCC2CC3)c1 (stereo partly drawn) [Example 223, (S)-quinuclidin-3-yl (5-(2-chloro-5-methylphenyl)-2,2-dimethyl-2,3-dihydro-1H-inden-1-yl)carbamate]	5.2
COc1cc(-c2ccc3c(c2)CC(C)(C)C3NC(=O)O[C@@H]2CN3CCC2CC3)cc(C(F)(F)F)c1 (stereo partly drawn) [Example 224, (S)-quinuclidin-3-yl (5-(3-methoxy-5-(trifluoromethyl)phenyl)-2,2-dimethyl-2,3-dihydro-1H-inden-1-yl)carbamate]	18.8
CC1(C)Cc2cc(-c3ccc(F)cc3Cl)ccc2C1NC(=O)O[C@@H]1CN2CCC1CC2 (stereo partly drawn) [Example 225, (S)-quinuclidin-3-yl (5-(2-chloro-4-fluorophenyl)-2,2-dimethyl-2,3-dihydro-1H-inden-1-yl)carbamate]	21.3
COc1cc(-c2ccc3c(c2)CC(C)(C)C3NC(=O)O[C@@H]2CN3CCC2CC3)ccc1F (stereo partly drawn) [Example 226, (S)-quinuclidin-3-yl (5-(4-fluoro-3-methoxyphenyl)-2,2-dimethyl-2,3-dihydro-1H-inden-1-yl)carbamate]	57
Cc1ccc(-c2ccc3c(c2)CC(C)(C)C3NC(=O)O[C@@H]2CN3CCC2CC3)cc1C (stereo partly drawn) [Example 227, (S)-quinuclidin-3-yl (5-(3,4-dimethylphenyl)-2,2-dimethyl-2,3-dihydro-1H-inden-1-yl)carbamate]	10.2
Cc1cc(F)ccc1-c1ccc2c(c1)CC(C)(C)C2NC(=O)O[C@@H]1CN2CCC1CC2 (stereo partly drawn) [Example 228, (S)-quinuclidin-3-yl (5-(4-fluoro-2-methylphenyl)-2,2-dimethyl-2,3-dihydro-1H-inden-1-yl)carbamate]	48.6
CC1(C)Cc2cc(-c3ccc(C(F)(F)F)cc3F)ccc2C1NC(=O)O[C@@H]1CN2CCC1CC2 (stereo partly drawn) [Example 229, (S)-quinuclidin-3-yl (5-(2-fluoro-4-(trifluoromethyl)phenyl)-2,2-dimethyl-2,3-dihydro-1H-inden-1-yl)carbamate]	56.2

Structure (SMILES)	IC50 [nM]
COc1ccc(F)c(-c2ccc3c(c2)CC(C)(C)C3NC(=O)O[C@@H]2CN3CCC2CC3)c1 (stereo partly drawn) [Example 230, (S)-quinuclidin-3-yl (5-(2-fluoro-5-methoxyphenyl)-2,2-dimethyl-2,3-dihydro-1H-inden-1-yl)carbamate]	30.8
COc1cccc(-c2ccc3c(c2)CC(C)(C)C3NC(=O)O[C@@H]2CN3CCC2CC3)c1F (stereo partly drawn) [Example 231, (S)-quinuclidin-3-yl (5-(2-fluoro-3-methoxyphenyl)-2,2-dimethyl-2,3-dihydro-1H-inden-1-yl)carbamate]	24.3
COc1ccc(C(C)C)cc1-c1ccc2c(c1)CC(C)(C)C2NC(=O)O[C@@H]1CN2CCC1CC2 (stereo partly drawn) [Example 232, (S)-quinuclidin-3-yl (5-(5-isopropyl-2-methoxyphenyl)-2,2-dimethyl-2,3-dihydro-1H-inden-1-yl)carbamate]	12.5
Cc1ccc(-c2ccc3c(c2)CC(C)(C)C3NC(=O)O[C@@H]2CN3CCC2CC3)c(F)c1 (stereo partly drawn) [Example 233, (S)-quinuclidin-3-yl (5-(2-fluoro-4-methylphenyl)-2,2-dimethyl-2,3-dihydro-1H-inden-1-yl)carbamate]	23.3
COc1ccc(F)cc1-c1ccc2c(c1)CC(C)(C)C2NC(=O)O[C@@H]1CN2CCC1CC2 (stereo partly drawn) [Example 234, (S)-quinuclidin-3-yl (5-(5-fluoro-2-methoxyphenyl)-2,2-dimethyl-2,3-dihydro-1H-inden-1-yl)carbamate]	13.6
Cc1cc(-c2ccc3c(c2)CC(C)(C)C3NC(=O)O[C@@H]2CN3CCC2CC3)co1 (stereo partly drawn) [Example 235, (S)-quinuclidin-3-yl (2,2-dimethyl-5-(5-methylfuran-3-yl)-2,3-dihydro-1H-inden-1-yl)carbamate]	6.5
COc1c(F)cccc1-c1ccc2c(c1)CC(C)(C)C2NC(=O)O[C@@H]1CN2CCC1CC2 (stereo partly drawn) [Example 236, (S)-quinuclidin-3-yl (5-(3-fluoro-2-methoxyphenyl)-2,2-dimethyl-2,3-dihydro-1H-inden-1-yl)carbamate]	32.4
CC1(C)Cc2cc(-c3cccc(F)c3Cl)ccc2C1NC(=O)O[C@@H]1CN2CCC1CC2 (stereo partly drawn) [Example 237, (S)-quinuclidin-3-yl (5-(2-chloro-3-fluorophenyl)-2,2-dimethyl-2,3-dihydro-1H-inden-1-yl)carbamate]	29.2
CC1(C)Cc2cc(-c3csc4ccccc34)ccc2C1NC(=O)O[C@@H]1CN2CCC1CC2 (stereo partly drawn) [Example 238, (S)-quinuclidin-3-yl (5-(benzo[b]thiophen-3-yl)-2,2-dimethyl-2,3-dihydro-1H-inden-1-yl)carbamate]	13.2
CCCOc1cc(F)ccc1-c1ccc2c(c1)CC(C)(C)C2NC(=O)O[C@@H]1CN2CCC1CC2 (stereo partly drawn) [Example 239, (S)-quinuclidin-3-yl (5-(4-fluoro-2-propoxyphenyl)-2,2-dimethyl-2,3-dihydro-1H-inden-1-yl)carbamate]	48.9
Cc1cc(-c2ccc3c(c2)CC(C)(C)C3NC(=O)O[C@@H]2CN3CCC2CC3)cc(C(C)(C)C)c1 (stereo partly drawn) [Example 240, (S)-quinuclidin-3-yl (5-(3-(tert-butyl)-5-methylphenyl)-2,2-dimethyl-2,3-dihydro-1H-inden-1-yl)carbamate]	51.3
CCOc1ccc(Cl)c(-c2ccc3c(c2)CC(C)(C)C3NC(=O)O[C@@H]2CN3CCC2CC3)c1 (stereo partly drawn) [Example 241, (S)-quinuclidin-3-yl (5-(2-chloro-5-ethoxyphenyl)-2,2-dimethyl-2,3-dihydro-1H-inden-1-yl)carbamate]	51.3
CC1(C)Cc2cc(-c3ccc(Cl)c(F)c3)ccc2C1NC(=O)O[C@@H]1CN2CCC1CC2 (stereo partly drawn) [Example 242, (S)-quinuclidin-3-yl (5-(4-chloro-3-fluorophenyl)-2,2-dimethyl-2,3-dihydro-1H-inden-1-yl)carbamate]	64.4
Cc1cccc(-c2ccc3c(c2)CC(C)(C)C3NC(=O)O[C@@H]2CN3CCC2CC3)c1F (stereo partly drawn) [Example 243, (S)-quinuclidin-3-yl (5-(2-fluoro-3-methylphenyl)-2,2-dimethyl-2,3-dihydro-1H-inden-1-yl)carbamate]	21.4
COc1ccc(C#N)cc1-c1ccc2c(c1)CC(C)(C)C2NC(=O)O[C@@H]1CN2CCC1CC2 (stereo partly drawn) [Example 244, (S)-quinuclidin-3-yl (5-(5-cyano-2-methoxyphenyl)-2,2-dimethyl-2,3-dihydro-1H-inden-1-yl)carbamate]	38
CCOc1cc(-c2ccc3c(c2)CC(C)(C)C3NC(=O)O[C@@H]2CN3CCC2CC3)cc(C(F)(F)F)c1 (stereo partly drawn) [Example 245, (S)-quinuclidin-3-yl (5-(3-ethoxy-5-(trifluoromethyl)phenyl)-2,2-dimethyl-2,3-dihydro-1H-inden-1-yl)carbamate]	23
CC1(C)Cc2cc(-c3cc(F)cc(C(F)(F)F)c3)ccc2C1NC(=O)O[C@@H]1CN2CCC1CC2 (stereo partly drawn) [Example 246, (S)-quinuclidin-3-yl (5-(3-fluoro-5-(trifluoromethyl)phenyl)-2,2-dimethyl-2,3-dihydro-1H-inden-1-yl)carbamate]	14.7
